# Active and inactive are the calls of the source. The calls are words filed in the database; no cut-off is given here.
# Experiments:
# HCT-116 [1] = assay: Induction of apoptosis in human HCT-116 cells assessed as necrotic cells at 25 uM by Annexin V-FITC staining based flow cytometry (reference value: 0.73 %); assay type: functional
# [2] = Solubility of the compound in water; assay type: physicochemical
# HCT-116 [3] = assay: Anticancer activity against human HCT-116 cells assessed as inhibition of cell growth by MTT assay; assay type: functional, cell-based
# [4] = Toxicity in iv dosed nude mouse xenografted with human SW480 cells assessed as effect on body weight administered at 3 days intervals for 21 days; assay type: organism-based; settings: in vivo, 504 h, time 21 day
# SW480 [5] = assay: Anticancer activity against human SW480 cells assessed as inhibition of cell growth by MTT assay; assay type: functional, cell-based
# HCT-116 [6] = assay: Induction of apoptosis in human HCT-116 cells assessed as late apoptotic cells at 25 uM by Annexin V-FITC staining based flow cytometry (reference value: 3.51 %); assay type: functional
# [7] = Cytotoxicity against HEK293T cells assessed as inhibition of cell growth by MTT assay; assay type: toxicity, cell-based, HEK-293T; settings: human
# SW480 [8] = assay: Induction of apoptosis in human SW480 cells assessed as viable cells at 25 uM by Annexin V-FITC staining based flow cytometry (reference value: 89.3 %); assay type: functional; settings: read-out: Activity
# HCT-116 [9] = assay: Induction of apoptosis in human HCT-116 cells assessed as early apoptotic cells at 25 uM by Annexin V-FITC staining based flow cytometry (reference value: 1.46 %); assay type: functional
# SW480 [10] = assay: Induction of apoptosis in human SW480 cells assessed as late apoptotic cells at 25 uM by Annexin V-FITC staining based flow cytometry (reference value: 5.12 %); assay type: functional
# [11] = Solubility of the compound in 0.9% NaCl solution; assay type: physicochemical
# HCT-116 [12] = assay: Induction of apoptosis in human HCT-116 cells assessed as viable cells at 25 uM by Annexin V-FITC staining based flow cytometry (reference value: 94.3%); assay type: functional; settings: read-out: Activity
# SW480 [13] = assay: Antimigratory activity against human SW480 cells assessed as inhibition of cell migration by wound healing assay relative to control; assay type: functional; set-up: scale not given: the % may be the effect or the level left
# [14] = Cytotoxicity against human L02 cells assessed as inhibition of cell growth by MTT assay; assay type: toxicity, cell-based
# SW480 [15] = assay: Induction of apoptosis in human SW480 cells assessed as necrotic cells at 25 uM by Annexin V-FITC staining based flow cytometry (reference value: 3.05 %); assay type: functional
# [16] = Toxicity in nude mouse xenografted with human SW480 cells assessed as effect on alanine transaminase level at 0.016 mmol/Kg, iv administered at 3 days intervals for 21 days; assay type: organism-based; settings: in vivo, 504 h, time 21 day
# [17] = Toxicity in nude mouse xenografted with human SW480 cells assessed as effect on WBC level at 0.016 mmol/Kg, iv administered at 3 days intervals for 21 days by routine blood test; assay type: organism-based; settings: in vivo, 504 h, time 21 day
# SW480 [18] = assay: Induction of apoptosis in human SW480 cells assessed as blue chromatin condensation by Hoechst 33258 staining based analysis; assay type: functional, cell-based
# [19] = Toxicity in nude mouse xenografted with human SW480 cells assessed as effect on MCV level at 0.016 mmol/Kg, iv administered at 3 days intervals for 21 days by routine blood test; assay type: organism-based; settings: in vivo, 504 h, time 21 day
# HCT-116 [20] = assay: Induction of apoptosis in human HCT-116 cells assessed as appearance of paired apoptotic vesicles around the nucleus by Hoechst 33258 staining based analysis; assay type: functional, cell-based
# [21] = Toxicity in nude mouse xenografted with human SW480 cells assessed as effect on MCH level at 0.016 mmol/Kg, iv administered at 3 days intervals for 21 days by routine blood test; assay type: organism-based; settings: in vivo, 504 h, time 21 day
# [22] = Toxicity in nude mouse xenografted with human SW480 cells assessed as effect on blood urea nitrogen level at 0.016 mmol/Kg, iv administered at 3 days intervals for 21 days; assay type: organism-based; settings: in vivo, 504 h, time 21 day
# HCT-116 [23] = assay: Induction of apoptosis in human HCT-116 cells assessed as appearance of wrinkled and round cells by Hoechst 33258 staining based analysis; assay type: functional, cell-based
# [24] = Toxicity in nude mouse xenografted with human SW480 cells assessed as effect on total protein level at 0.016 mmol/Kg, iv administered at 3 days intervals for 21 days; assay type: organism-based; settings: in vivo, 504 h, time 21 day
# [25] = Toxicity in nude mouse xenografted with human SW480 cells assessed as effect on hemoglobin level at 0.016 mmol/Kg, iv administered at 3 days intervals for 21 days by routine blood test; assay type: organism-based; settings: in vivo, 504 h, time 21 day
# SW480 [26] = assay: Induction of apoptosis in human SW480 cells assessed as appearance of wrinkled and round cells by Hoechst 33258 staining based analysis; assay type: functional, cell-based
# SW480 [27] = assay: Inhibition of cell invasion in human SW480 cells by Boyden chamber invasion assay; assay type: functional, cell-based; settings: dose 5-50 µM
# SW480 [28] = assay: Induction of apoptosis in human SW480 cells assessed as appearance of paired apoptotic vesicles around the nucleus by Hoechst 33258 staining based analysis; assay type: functional, cell-based
# [29] = Selectivity index, ratio of IC50 for cytotoxicity against HEK293T cells to IC50 for anticancer activity against human HCT-116 cells; assay type: toxicity, cell-based; settings: HEK293T cells and HCT-116 cells, read-out: Ratio IC50
# [30] = Toxicity in nude mouse xenografted with human SW480 cells assessed as effect on RBC level at 0.016 mmol/Kg, iv administered at 3 days intervals for 21 days by routine blood test; assay type: organism-based, Erythrocyte; settings: in vivo, 504 h, time 21 day
# [31] = Toxicity in nude mouse xenografted with human SW480 cells assessed as effect on albumin level at 0.016 mmol/Kg, iv administered at 3 days intervals for 21 days; assay type: organism-based; settings: in vivo, 504 h, time 21 day
# [32] = Toxicity in nude mouse xenografted with human SW480 cells assessed as effect on cholesterol level at 0.016 mmol/Kg, iv administered at 3 days intervals for 21 days; assay type: organism-based; settings: in vivo, 504 h, time 21 day
# HCT-116 [33] = assay: Antimigratory activity against human HCT-116 cells assessed as inhibition of cell migration by wound healing assay relative to control; assay type: functional; set-up: scale not given: the % may be the effect or the level left
# [34] = Selectivity index, ratio of IC50 for cytotoxicity against HEK293T cells to IC50 for anticancer activity against human SW480 cells; assay type: toxicity, cell-based; settings: HEK293T cells and SW480 cells, read-out: Ratio IC50
# SW480 [35] = assay: Antitumor activity against human SW480 cells xenografted in iv dosed mouse assessed as reduction in tumor volume administered at 3 days intervals for 21 days; assay type: functional, organism-based; settings: dose 0.008-0.016 mmol/Kg, time 21.0 day
# SW480 [36] = assay: Antitumor activity against human SW480 cells xenografted in mouse assessed as reduction in tumor growth at 0.008 to 0.016 mmol/Kg, iv administered at 3 days intervals for 21 days; assay type: functional, organism-based; settings: dose 0.008-0.016 mmol/Kg, time 21.0 day
# HCT-116 [37] = assay: Induction of apoptosis in human HCT-116 cells assessed as blue chromatin condensation by Hoechst 33258 staining based analysis; assay type: functional, cell-based
# [38] = Toxicity in nude mouse xenografted with human SW480 cells assessed as effect on PDW at 0.016 mmol/Kg, iv administered at 3 days intervals for 21 days by routine blood test; assay type: organism-based; settings: in vivo, 504 h, time 21 day
# SW480 [39] = assay: Antitumor activity against human SW480 cells xenografted in mouse assessed as reduction in tumor weight at 0.008 to 0.016 mmol/Kg, iv administered at 3 days intervals for 21 days; assay type: functional, organism-based; settings: dose 0.008-0.016 mmol/Kg, time 21.0 day
# [40] = Selectivity index, ratio of IC50 for cytotoxicity against human L02 cells to IC50 for anticancer activity against human HCT-116 cells; assay type: toxicity, cell-based; settings: L02 cells and HCT-116 cells, read-out: Ratio IC50
# SW480 [41] = assay: Induction of apoptosis in human SW480 cells assessed as early apoptotic cells at 25 uM by Annexin V-FITC staining based flow cytometry (reference value: 2.53 %); assay type: functional
# [42] = Toxicity in nude mouse xenografted with human SW480 cells assessed as effect on body weight at 0.008 to 0.016 mmol/Kg, iv administered at 3 days intervals for 21 days; assay type: organism-based; settings: in vivo, 504 h, dose 0.008-0.016 mmol/Kg, time 21 day
# HCT-116 [43] = assay: Inhibition of cell invasion in human HCT-116 cells by Boyden chamber invasion assay; assay type: functional, cell-based; settings: dose 5-50 µM
# [44] = Selectivity index, ratio of IC50 for cytotoxicity against human L02 cells to IC50 for anticancer activity against human SW480 cells; assay type: toxicity, cell-based; settings: L02 cells and SW480 cells, read-out: Ratio IC50
# [45] = Toxicity in nude mouse xenografted with human SW480 cells assessed as effect on creatinine level at 0.016 mmol/Kg, iv administered at 3 days intervals for 21 days; assay type: organism-based; settings: in vivo, 504 h, time 21 day
# [46] = Solubility of the compound in Tween 80 solution; assay type: physicochemical
smiles,measurement,setting,value
CCc1c2c(nc3ccc(OC(=O)N4CCC(N5CCCCC5)CC4)cc13)-c1cc3c(c(=O)n1C2)COC(=O)[C@]3(O)CC [IRINOTECAN],Activity,HCT-116 [1],0.256%
same,solubility,[2],5590 µg/mL
same,IC50,HCT-116 [3],14.2 µM
same,Activity,[4],Non-Toxic
same,IC50,SW480 [5],11.2 µM
same,Activity,HCT-116 [6],6.15%
same,IC50,[7],19.8 µM
same,viability at 25 µM,SW480 [8],85%
same,Activity,HCT-116 [9],1.51%
same,Activity,SW480 [10],10.7%
same,solubility,[11],1200 µg/mL
same,viability at 25 µM,HCT-116 [12],92.5%
same,Activity,SW480 [13],74.5%
same,IC50,[14],22.2 µM
same,Activity,SW480 [15],0.871%
CCc1c2c(nc3ccc(OC(=O)NCCOCc4cn(CCO[C@H]5O[C@@H](CO)[C@H](O)[C@@H](O)[C@@H]5O)nn4)cc13)-c1cc3c(c(=O)n1C2)COC(=O)[C@]3(O)CC,Activity,[16],Non-Toxic
same,Activity,[17],Non-Toxic
same,Activity,SW480 [18],Active
same,Activity,HCT-116 [1],2.2%
same,solubility,[2],2530 µg/mL
same,Activity,[19],Non-Toxic
same,IC50,HCT-116 [3],0.27 µM
same,Activity,HCT-116 [20],Active
same,IC50,SW480 [5],0.16 µM
same,Activity,HCT-116 [6],14.1%
same,Activity,[21],Non-Toxic
same,Activity,[22],Non-Toxic
same,IC50,[7],19.8 µM
same,Activity,HCT-116 [23],Active
same,viability at 25 µM,SW480 [8],50%
same,Activity,[24],Non-Toxic
same,Activity,[25],Non-Toxic
same,Activity,SW480 [26],Active
same,inhibition,SW480 [27],Dose-Dependent Effect
same,Activity,HCT-116 [9],3.67%
same,Activity,SW480 [28],Active
same,Activity,SW480 [10],38.7%
same,selectivity ratio,[29],73.5
same,viability at 25 µM,HCT-116 [12],80.1%
same,Activity,[30],Non-Toxic
same,Activity,[31],Non-Toxic
same,Activity,[32],Non-Toxic
same,Activity,HCT-116 [33],20.1%
same,Activity,SW480 [13],26.7%
same,IC50,[14],1.54 µM
same,selectivity ratio,[34],124
same,Activity,SW480 [35],Dose-Dependent Effect
same,Activity,SW480 [15],5.33%
same,Activity,SW480 [36],Active
same,Activity,HCT-116 [37],Active
same,Activity,[38],Non-Toxic
same,Activity,SW480 [39],Active
same,selectivity ratio,[40],5.7
same,Activity,SW480 [41],6%
same,Activity,[42],Non-Toxic
same,inhibition,HCT-116 [43],Dose-Dependent Effect
same,selectivity ratio,[44],9.62
same,Activity,[45],Non-Toxic
CCc1c2c(nc3ccc(O)cc13)-c1cc3c(c(=O)n1C2)COC(=O)[C@]3(O)CC [7-ETHYL-10-HYDROXYCAMPTOTHECIN],solubility,[2],7.74 µg/mL
same,solubility,[11],17.6 µg/mL
same,solubility,[46],77.4 µg/mL

# Reference: ChEMBL document CHEMBL5236668, “Synthesis and biological evaluation of novel SN38-glucose conjugate for colorectal cancer treatment” (Bioorg Med Chem Lett, 2023)
